Key:
EGF Receptor = target: T1, EGF Receptor (Homo sapiens, UniProt P00533); test: EGF Receptor kinase activity in whole cells (EGFR-NIH3T3 assay, EGFR ELISA); format: cell-based; details: Table 5, EGFR ELISA assay in whole cells (EGFR-NIH3T3); read-out: IC50 A549
T1 construct: expressed in transfected cells; host or cells: NIH3T3 (EGFR-NIH3T3)
Description: EGF Receptor kinase activity (EGFR-NIH3T3 assay) in whole cells was measured as described in detail in PCT Publication WO9640116, filed Jun. 5, 1996, by Tang et al., and entitled “Indolinone Compounds for the Treatment of Disease,” incorporated herein by reference in its entirety, including any drawings.

[1] = system: A549 human lung carcinoma cells; test: Growth of A549 cells (SRB); format: cell-based
Description: The following assay measures growth rates for A549 cells. The purpose of the assay is to determine the effects of compounds on the growth of A549 human lung carcinoma cells. A549 cells are readily accessible from commercial sources, such as ATCC (CCL185).
• 96-well flat bottom sterile plates • 96-well round bottom sterile plates • sterile 25 mL or 100 mL reservoir • pipets, multi-channel pipetman • sterile pipet tips • sterile 15 mL and 50 mL tubes Reagents: • 0.4% SRB in 1% acetic acid • 10 mM Tris base • 10% TCA • 1% acetic acid • sterile DMSO (Sigma) • compound in DMSO (100 mM or less stock solution) • Trypsin-EDTA (GIBCO BRL) Cell Line and Growth Medium: • A549 human lung carcinoma cells (ATCC CCL185) • 10% fetal calf serum in Ham's F12-K Protocol: Day 0: Cell Plating:
This part of assay is carried out in a laminar flow hood. • 1. Trypsinize cells. Transfer 200 μL of cell suspension to 10 mL of isotone. Count cells with a Coulter Counter. • 2. Dilute cells in growth medium to 20,000 cell/mL. Transfer 100 μL of cells to each well in a 96-well flat bottom plate to give 2000 cells/well. • 3. Use half of plate (4 rows) for each compound and quadruplicate wells for each compound concentration, and a set of 4 wells for medium control. • 4. Gently shake plates to allow for uniform attachment of the cells. • 5. Incubate the plates at 37° C. in a 10% CO2 incubator. Day 1: Addition of Compound:
This part of assay is carried out in a laminar flow hood. • 1. In a 96 well-round bottom plate, add 120 μL of growth medium containing 2×final %DMSO found in highest screening concentration of compound to columns 1 to 11. For example, if the highest screening concentration is 100 μM, and this is made from a 100 mM stock, 1×DMSO is 0.1%, so 2×DMSO is 0.2%. This plate is used to titrate out the compound, 4 rows per compound. • 2. In a sterile 15 mL tube, make a 2×solution of the highest screening concentration of compound in growth medium plus 2×DMSO. 1 mL per cell line is needed. The starting concentration of the compound is usually 100 μM but this concentration may vary depending upon the solubility of the compound. • 3. Transfer 240 μL of the 2×starting compound solution to quadruplicate wells in column 12 of the 96-well round bottom plate. Do 1:2 serial dilutions across the plate from right to left by transferring 120 μL from column 12 to column 11, column 11 to 10 and so on through column 2. Transfer 100 μL of compound dilutions, and 100 μL of medium in column 1, onto 100 μL medium on cells in corresponding wells of 96-well flat bottom plate. Total volume per well should be 200 μL. • 4. Return the plate to the incubator and incubate for 3 days. Day 5: Development of Assay
This part of assay is carried out on the bench. • 1. Aspirate or pour off medium. Add 200 μL cold 10% TCA to each well to fix cells. Incubate plate for at least 60 min. at 4° C. • 2. Discard TCA and rinse wells 5 times with tap water. Dry plates upside down on paper towels. • 3. Stain cells with 100 μL/well 0.4% SRB for 10 min. • 4. Pour off SRB and rinse wells 5 times with 1% acetic acid. Dry plates completely upside down on paper towels. • 5. Solubilize dye with 100 μL/well 10 mM Tris base for 5-10 min. on shaker. • 6. Read plates on Dynatech ELISA Plate Reader at 570 nm with reference at 630 nm.

T1 sequence (P00533 25-1210): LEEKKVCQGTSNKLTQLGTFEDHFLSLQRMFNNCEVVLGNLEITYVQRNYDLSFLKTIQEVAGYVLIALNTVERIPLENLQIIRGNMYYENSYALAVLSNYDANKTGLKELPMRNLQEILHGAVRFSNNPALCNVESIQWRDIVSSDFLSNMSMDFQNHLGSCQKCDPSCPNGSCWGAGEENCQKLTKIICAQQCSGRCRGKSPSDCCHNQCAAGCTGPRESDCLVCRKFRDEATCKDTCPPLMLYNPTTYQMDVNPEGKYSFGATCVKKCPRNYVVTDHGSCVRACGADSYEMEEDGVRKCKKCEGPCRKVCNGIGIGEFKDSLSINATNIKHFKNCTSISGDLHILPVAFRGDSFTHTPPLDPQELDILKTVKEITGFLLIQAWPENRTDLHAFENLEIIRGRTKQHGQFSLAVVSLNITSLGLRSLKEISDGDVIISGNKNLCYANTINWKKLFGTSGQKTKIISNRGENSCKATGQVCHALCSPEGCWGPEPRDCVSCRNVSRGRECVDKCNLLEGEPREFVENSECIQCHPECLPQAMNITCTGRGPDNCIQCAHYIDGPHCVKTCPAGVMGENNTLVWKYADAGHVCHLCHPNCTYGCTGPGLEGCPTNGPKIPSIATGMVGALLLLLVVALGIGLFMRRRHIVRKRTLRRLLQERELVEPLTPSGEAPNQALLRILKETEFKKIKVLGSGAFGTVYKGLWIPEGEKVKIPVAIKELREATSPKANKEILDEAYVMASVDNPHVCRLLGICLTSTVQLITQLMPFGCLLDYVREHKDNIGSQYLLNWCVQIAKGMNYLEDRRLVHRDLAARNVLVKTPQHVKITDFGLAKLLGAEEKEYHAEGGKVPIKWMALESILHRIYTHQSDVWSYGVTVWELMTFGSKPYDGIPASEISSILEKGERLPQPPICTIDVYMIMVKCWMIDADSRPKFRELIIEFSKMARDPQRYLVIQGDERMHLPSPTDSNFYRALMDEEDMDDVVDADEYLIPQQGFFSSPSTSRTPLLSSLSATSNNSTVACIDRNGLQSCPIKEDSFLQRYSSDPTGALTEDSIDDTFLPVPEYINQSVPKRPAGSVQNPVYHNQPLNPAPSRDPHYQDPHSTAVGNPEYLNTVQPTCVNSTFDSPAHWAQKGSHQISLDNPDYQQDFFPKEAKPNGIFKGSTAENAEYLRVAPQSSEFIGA

Row | IC50 (EGF Receptor) [µM] | IC50 [1] [µM] | SMILES
1 | 24.6 | 15.9 | Nc1nc(N)c2c(Oc3ccccc3)cccc2n1 [Compound A-1, 2,4-Diamino-5-phenoxyquinazoline]
2 | > 100 | – | COc1ccc(Oc2cccc3nc(N)nc(N)c23)cc1 [Compound A-6, 2,4-Diamino-5-(4-methoxyphenoxy)quinazoline]
3 | > 100 | 17.7 | Nc1nc(N)c2c(Oc3ccc(F)cc3)cccc2n1 [Compound A-7, 2,4-Diamino-5-(4-fluorophenoxy)quinazoline]
4 | – | 77.9 | CC(C)(C)c1ccc(Oc2cccc3nc(N)nc(N)c23)cc1 [Compound A-8, 2,4-Diamino-5-(4-tert-butylphenoxy)quinazoline]

More lines, now with the values behind:

Row | SMILES | IC50 (EGF Receptor) [µM] | IC50 [1] [µM]
5 | COc1ccccc1Oc1cccc2nc(N)nc(N)c12 [Compound A-22, 2,4-Diamino-5-(2-methoxyphenoxy)quinazoline] | > 100 | 26
6 | COc1cccc(Oc2cccc3nc(N)nc(N)c23)c1 [Compound A-23, 2,4-Diamino-5-(3-methoxyphenoxy)quinazoline] | 17.2 | 18
7 | Nc1ncnc2cccc(Oc3ccc(OCc4ccccc4)cc3)c12 [Compound A-28, 4-Amino-5-(4-benzyloxyphenoxy)quinazoline] | 75.1 | 32
